Read-outs that look alike come from different tables or passages of the source.
Biological target: T1, myeloperoxidase (MPO) (Homo sapiens, UniProt P05164)
T1 sequence (P05164 49-745): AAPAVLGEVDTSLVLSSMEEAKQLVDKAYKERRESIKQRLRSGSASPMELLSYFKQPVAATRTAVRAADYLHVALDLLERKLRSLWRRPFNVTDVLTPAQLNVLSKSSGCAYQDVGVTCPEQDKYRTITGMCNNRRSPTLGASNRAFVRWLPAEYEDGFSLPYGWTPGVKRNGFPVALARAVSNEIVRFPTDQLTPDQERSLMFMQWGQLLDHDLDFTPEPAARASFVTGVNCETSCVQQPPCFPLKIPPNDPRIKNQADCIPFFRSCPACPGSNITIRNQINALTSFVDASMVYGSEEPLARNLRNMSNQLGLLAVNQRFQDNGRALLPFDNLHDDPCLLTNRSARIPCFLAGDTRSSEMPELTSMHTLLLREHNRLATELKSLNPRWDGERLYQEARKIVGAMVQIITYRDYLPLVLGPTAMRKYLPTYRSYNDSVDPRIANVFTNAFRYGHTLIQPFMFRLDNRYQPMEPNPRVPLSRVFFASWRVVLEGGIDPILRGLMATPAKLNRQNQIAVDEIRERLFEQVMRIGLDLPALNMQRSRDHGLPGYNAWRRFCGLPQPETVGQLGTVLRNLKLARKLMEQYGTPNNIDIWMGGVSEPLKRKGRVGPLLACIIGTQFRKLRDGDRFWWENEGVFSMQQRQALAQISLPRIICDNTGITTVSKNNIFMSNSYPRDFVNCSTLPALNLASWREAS
Test: MPO peroxidation assay (Amplex Red assay)
Format: biochemical
Protocol: MPO Peroxidation Assay (Amplex Red Assay)
MPO peroxidation activity was measured in 100 mM KPi (pH 7.4) by utilizing the non-fluorescent reagent Amplex Red (Invitrogen catalog # A12222) which can be oxidized to the highly fluorescent resorufin. Amplex Red is oxidized by the peroxidase action of MPO to resorufin. Reactions were carried out in 50 μL total volume by adding a 25 μL mixture of 200 pM myeloperoxidase and 40 nM H2O2(Sigma #349887) to 100 nL inhibitor in 100% DMSO in a 384 well Perkin Elmer Optiplate. Enzyme and compound were preincubated for ten minutes at room temperature.
After the ten minute preincubation, 25 μL of an Amplex Red mixture containing 200 μM Amplex Red and 10 mM H2O2 was added to the plate. Kinetic determinations were carried out immediately on a Perkin Elmer Envision (15 minute kinetic read, Ex: 535 nm, Em: 590 nm).
IC50 values were calculated by determining the slope of the linear portion of the kinetic trace ([…]), and using that calculated slope to determine % inhibition occurring at each concentration of inhibitor using the following equation:
[formula] where A=minimal Y value (activity level of inhibited sample), B=maximal Y value (activity level of uninhibited sample), C=Log IC50, D=Hill Slope, x=concentration of inhibitor. MPO Chlorination Assay (APF Assay)

[1] = MPO peroxidation, potency range class, read-out: Amplex Red IC50

| Structure (SMILES) | IC50 [1] | IC50 |
| --- | --- | --- |
| Nc1cc(OCc2cc(Cl)ccc2OCC2CCCO2)c2nn[nH]c2n1 (stereo not shown) [Example 89, 7-(5-Chloro-2-((tetrahydrofuran-2-yl)methoxy)benzyloxy)-3H-[1,2,3]triazolo[4,5-b]pyridin-5-amine] | 0.001 to 0.1 µM | – |
| Nc1cc(OCC2CCC(c3ccccc3)CC2)c2nn[nH]c2n1 (stereo not shown) [Example 90, 7-((4-Phenylcyclohexyl)methoxy)-3H-[1,2,3]triazolo[4,5-b]pyridin-5-amine] | 0.001 to 0.1 µM | – |
| Nc1cc(OCc2cccc(-c3cccc(F)c3)c2)c2nn[nH]c2n1 [Example 91, 7-((3′-Fluorobiphenyl-3-yl)methoxy)-3H-[1,2,3]triazolo[4,5-b]pyridin-5-amine] | – | 0.001 to 0.1 µM |
| N#Cc1cccc(-c2cccc(COc3cc(N)nc4[nH]nnc34)c2)c1 [Example 92, 3′-((5-Amino-3H-[1,2,3]triazolo[4,5-b]pyridin-7-yloxy)methyl)biphenyl-3-carbonitrile] | 0.001 to 0.1 µM | – |
| Nc1cc(OCc2cccc(-c3ccccc3Cl)c2)c2nn[nH]c2n1 [Example 93, 7-((2′-Chlorobiphenyl-3-yl)methoxy)-3H-[1,2,3]triazolo[4,5-b]pyridin-5-amine] | 0.001 to 0.1 µM | – |
| Nc1cc(OCc2cccc(-c3ccc(F)cc3)c2)c2nn[nH]c2n1 [Example 95, 7-((4′-Fluorobiphenyl-3-yl)methoxy)-3H-[1,2,3]triazolo[4,5-b]pyridin-5-amine] | 0.001 to 0.1 µM | – |
| Nc1cc(OCc2cccc(-c3ccccc3F)c2)c2nn[nH]c2n1 [Example 96, 7-((2′-Fluorobiphenyl-3-yl)methoxy)-3H-[1,2,3]triazolo[4,5-b]pyridin-5-amine] | – | 0.001 to 0.1 µM |
| Nc1cc(OCc2cccc(-c3ccc(Cl)cc3)c2)c2nn[nH]c2n1 [Example 97, 7-((4′-Chlorobiphenyl-3-yl)methoxy)-3H-[1,2,3]triazolo[4,5-b]pyridin-5-amine] | 0.101 to 0.999 µM | – |
| Nc1cc(OCc2cccc(-c3ccc(-c4ccn[nH]4)cc3)c2)c2nn[nH]c2n1 [Example 98, 7-((4′-(1H-Pyrazol-5-yl)biphenyl-3-yl)methoxy)-3H-[1,2,3]triazolo[4,5-b]pyridin-5-amine] | 0.001 to 0.1 µM | – |
| CN1CCN(c2ccc(-c3cccc(COc4cc(N)nc5[nH]nnc45)c3)cc2)CC1 [Example 99, 7-((4′-(4-Methylpiperazin-1-yl)biphenyl-3-yl)methoxy)-3H-[1,2,3]triazolo[4,5-b]pyridin-5-amine] | 0.101 to 0.999 µM | – |
| Nc1cc(OCc2cccc(-c3ccc(NC(=O)c4ccccc4)cc3)c2)c2nn[nH]c2n1 [Example 100, N-(3′-((5-Amino-3H-[1,2,3]triazolo[4,5-b]pyridin-7-yloxy)methyl)biphenyl-4-yl)benzamide] | 0.001 to 0.1 µM | – |
| N#Cc1ccc(-c2cccc(COc3cc(N)nc4[nH]nnc34)c2)cc1 [Example 101, 3′-((5-Amino-3H-[1,2,3]triazolo[4,5-b]pyridin-7-yloxy)methyl)biphenyl-4-carbonitrile] | 0.001 to 0.1 µM | – |
| Nc1cc(OCc2cccc(-c3ccc(-c4ccccc4)cc3)c2)c2nn[nH]c2n1 [Example 102, 7-((4′-Phenylbiphenyl-3-yl)methoxy)-3H-[1,2,3]triazolo[4,5-b]pyridin-5-amine] | 0.101 to 0.999 µM | – |
| Nc1cc(OCc2cccc(-c3cccnc3)c2)c2nn[nH]c2n1 [Example 103, 7-(3-(Pyridin-3-yl)benzyloxy)-3H-[1,2,3]triazolo[4,5-b]pyridin-5-amine] | 0.001 to 0.1 µM | – |
| Nc1cc(OCc2cccc(-c3ccc(C(=O)Nc4ccccc4)cc3)c2)c2nn[nH]c2n1 [Example 104, 3′-((5-Amino-3H-[1,2,3]triazolo[4,5-b]pyridin-7-yloxy)methyl)-N-phenylbiphenyl-4-carboxamide] | 0.101 to 0.999 µM | – |
| COc1ccc(-c2cccc(COc3cc(N)nc4[nH]nnc34)c2)cc1F [Example 105, 7-((3′-Fluoro-4′-methoxybiphenyl-3-yl)methoxy)-3H-[1,2,3]triazolo[4,5-b]pyridin-5-amine] | 0.001 to 0.1 µM | – |
| Nc1cc(OCc2ccc(Br)cc2)c2nn[nH]c2n1 [Example 106, 7-(4-Bromobenzyloxy)-3H-[1,2,3]triazolo[4,5-b]pyridin-5-amine] | 0.001 to 0.1 µM | – |

| Structure (SMILES) | IC50 [1] | IC50 |
| --- | --- | --- |
| CCN(C)C(=O)c1ccc(-c2ccc(COc3cc(N)nc4[nH]nnc34)cc2)cc1F [Example 107, 4′-((5-Amino-3H-[1,2,3]triazolo[4,5-b]pyridin-7-yloxy)methyl)-N-ethyl-3-fluoro-N-methylbiphenyl-4-carboxamide] | 0.101 to 0.999 µM | – |
| COc1ccc(-c2ccc(COc3cc(N)nc4[nH]nnc34)cc2)cc1F [Example 108, 7-((3′-Fluoro-4′-methoxybiphenyl-4-yl)methoxy)-3H-[1,2,3]triazolo[4,5-b]pyridin-5-amine] | 0.101 to 0.999 µM | – |
| Nc1cc(OCc2ccc(-c3ccccc3Cl)cc2)c2nn[nH]c2n1 [Example 109, 7-((2′-Chlorobiphenyl-4-yl)methoxy)-3H-[1,2,3]triazolo[4,5-b]pyridin-5-amine] | 0.101 to 0.999 µM | – |
| N#Cc1cccc(-c2ccc(COc3cc(N)nc4[nH]nnc34)cc2)c1 [Example 110, 4′-((5-Amino-3H-[1,2,3]triazolo[4,5-b]pyridin-7-yloxy)methyl)biphenyl-3-carbonitrile] | 1 to 10 µM | – |
| Nc1cc(OCc2ccc(-c3cccc(Cl)c3)cc2)c2nn[nH]c2n1 [Example 111, 7-((3′-Chlorobiphenyl-4-yl)methoxy)-3H-[1,2,3]triazolo[4,5-b]pyridin-5-amine] | 1 to 10 µM | – |
| COc1cccc(-c2ccc(COc3cc(N)nc4[nH]nnc34)cc2)c1 [Example 112, 7-((3′-Methoxybiphenyl-4-yl)methoxy)-3H-[1,2,3]triazolo[4,5-b]pyridin-5-amine] | 0.101 to 0.999 µM | – |
| COc1cccc(-c2cccc(COc3cc(N)nc4[nH]nnc34)c2)c1 [Example 113, 7-((3′-Methoxybiphenyl-3-yl)methoxy)-3H-[1,2,3]triazolo[4,5-b]pyridin-5-amine] | 0.001 to 0.1 µM | – |
| Nc1cc(OCc2ccc(-c3ccccc3F)cc2)c2nn[nH]c2n1 [Example 114, 7-((2′-Fluorobiphenyl-4-yl)methoxy)-3H-[1,2,3]triazolo[4,5-b]pyridin-5-amine] | 0.101 to 0.999 µM | – |
| COc1c(F)cccc1-c1cccc(COc2cc(N)nc3[nH]nnc23)c1 [Example 115, 7-((3′-Fluoro-2′-methoxybiphenyl-3-yl)methoxy)-3H-[1,2,3]triazolo[4,5-b]pyridin-5-amine] | 0.001 to 0.1 µM | – |
| CCN(C)C(=O)c1ccc(-c2cccc(COc3cc(N)nc4[nH]nnc34)c2)cc1F [Example 116, 3′-((5-Amino-3H-[1,2,3]triazolo[4,5-b]pyridin-7-yloxy)methyl)-N-ethyl-3-fluoro-N-methylbiphenyl-4-carboxamide] | 0.101 to 0.999 µM | – |
| COc1c(F)cc(F)cc1-c1ccc(COc2cc(N)nc3[nH]nnc23)cc1 [Example 117, 7-((3′,5′-Difluoro-2′-methoxybiphenyl-4-yl)methoxy)-3H-[1,2,3]triazolo[4,5-b]pyridin-5-amine] | 0.101 to 0.999 µM | – |
| COc1cccc(Cl)c1-c1ccc(COc2cc(N)nc3[nH]nnc23)cc1 [Example 118, 7-((2′-Chloro-6′-methoxybiphenyl-4-yl)methoxy)-3H-[1,2,3]triazolo[4,5-b]pyridin-5-amine] | 0.001 to 0.1 µM | – |
| Nc1cc(OCc2ccc(-c3ccc(OC(F)(F)F)cc3)cc2)c2nn[nH]c2n1 [Example 119, 7-((4′-(Trifluoromethoxy)biphenyl-4-yl)methoxy)-3H-[1,2,3]triazolo[4,5-b]pyridin-5-amine] | 0.101 to 0.999 µM | – |
| Nc1cc(OCc2ccc(-c3cccc(C(F)(F)F)c3)cc2)c2nn[nH]c2n1 [Example 120, 7-((3′-(Trifluoromethyl)biphenyl-4-yl)methoxy)-3H-[1,2,3]triazolo[4,5-b]pyridin-5-amine] | 0.101 to 0.999 µM | – |
| Nc1cc(OCc2cccc(-c3cncc(F)c3)c2)c2nn[nH]c2n1 [Example 121, 7-(3-(5-Fluoropyridin-3-yl)benzyloxy)-3H-[1,2,3]triazolo[4,5-b]pyridin-5-amine] | 0.001 to 0.1 µM | – |
| COc1ccc(-c2ccc(COc3cc(N)nc4[nH]nnc34)cc2)cc1 [Example 122, 7-((4′-Methoxybiphenyl-4-yl)methoxy)-3H-[1,2,3]triazolo[4,5-b]pyridin-5-amine] | 0.001 to 0.1 µM | – |
| COc1ccccc1-c1ccc(COc2cc(N)nc3[nH]nnc23)cc1 [Example 123, 7-((2′-Methoxybiphenyl-4-yl)methoxy)-3H-[1,2,3]triazolo[4,5-b]pyridin-5-amine] | 0.001 to 0.1 µM | – |

— patent publication US10316035B2, “Triazolopyridine inhibitors of myeloperoxidase” (BRISTOL-MYERS SQUIBB COMPANY, priority 2015, dated 2019)
